# Experimental data taken from patent publication US11312723B2, “Pyranopyrazole and pyrazolopyridine immunomodulators for treatment of autoimmune diseases” (The Rockefeller University, priority 2017, dated 2022).
# Tests used:
# Human alpha-thrombin = Human alpha-thrombin (Homo sapiens (Human), UniProt P00734); assay: Thrombin counterscreen for selectivity, fluorogenic substrate cleavage; assay type: biochemical; details: 10 min pre-incubation, Boc-Val-Pro-Arg-AMC 20 μM
# Experimental: Counterscreens for Selectivity:
# Thrombin. In a 96-well white opaque plate, 80 μl of assay buffer was added to each well. Test compounds were added, and serially diluted as above, to generate a concentration range of approximately 1-100 μM. Human alpha-thrombin (Enzyme Research Labs) was diluted in assay buffer to a final concentration of 12.5 nM. 80 μl of this enzyme solution was added to the assay wells. The enzyme/compound mixtures were incubated for 10 minutes at room temperature. Fluorogenic substrate (Boc-Val-Pro-Arg-7-amido-4-methylcoumarin; Sigma) was added to assay wells at a final concentration of 20 μM. The assay plate was spun for 1 minute at 1500 g and then read at 37° C. in a SpectraMax M2 plate reader (λex=380 nm and λem=460 nm). Activity was quantified as the rate of change in fluorescence, which corresponds to the rate of substrate cleavage. IC50 values were determined as the concentration of inhibitor that produced 50% of the rate of change of control wells without any inhibitor. For compounds with activity <1 μM, the assay was repeated with a lower concentration range, typically from 10-1000 nM.
# Human FXIIa = Human FXIIa (Homo sapiens (Human), UniProt P00748); assay: Factor XIIa (FXIIa) inhibitory activity, chromogenic substrate (Pefachrome XIIa) cleavage; assay type: biochemical; details: 10 min pre-incubation, Pefachrome XIIa 400 μM
# Human FXIIa, sequence (P00748 373-615): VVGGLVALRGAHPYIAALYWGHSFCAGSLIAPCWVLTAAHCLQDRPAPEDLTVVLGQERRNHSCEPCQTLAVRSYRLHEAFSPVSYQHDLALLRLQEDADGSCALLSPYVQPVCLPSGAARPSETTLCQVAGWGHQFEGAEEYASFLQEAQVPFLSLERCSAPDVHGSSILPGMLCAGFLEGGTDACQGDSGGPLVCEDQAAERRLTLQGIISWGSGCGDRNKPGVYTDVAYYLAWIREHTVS
# Human FXIIa, sequence (P00748 20-372 partner): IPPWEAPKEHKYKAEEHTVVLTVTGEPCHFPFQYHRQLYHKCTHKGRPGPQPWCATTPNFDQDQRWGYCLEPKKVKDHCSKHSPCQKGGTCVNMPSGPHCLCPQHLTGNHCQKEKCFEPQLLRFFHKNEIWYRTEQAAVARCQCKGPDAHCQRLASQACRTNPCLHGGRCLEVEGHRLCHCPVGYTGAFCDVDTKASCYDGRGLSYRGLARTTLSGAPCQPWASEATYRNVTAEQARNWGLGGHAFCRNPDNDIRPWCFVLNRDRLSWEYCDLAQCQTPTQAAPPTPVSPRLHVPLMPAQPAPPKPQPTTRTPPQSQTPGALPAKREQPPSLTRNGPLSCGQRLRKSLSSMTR
smiles,measurement,setting,value
"CS(=O)(=O)N1CCc2c(nn(C(=O)[C@H]3CCNc4ccccc43)c2N)C1 (single isomer, unassigned) [Example 135, (S*)-(3-amino-6-(methylsulfonyl)-4,5,6,7-tetrahydro-pyrazolo[3,4-c]pyridin-2-yl)(1,2,3,4-tetrahydro-quinolin-4-yl)methanone]",IC50,Human alpha-thrombin,28 µM
same,IC50,Human FXIIa,0.08 µM
"Nc1c2c(nn1C(=O)[C@H]1CCNc3ccc(F)cc31)CNCC2 (single isomer, unassigned) [Example 146, (S*)-(3-amino-4,5,6,7-tetrahydro-pyrazolo[3,4-c]pyridin-2-yl)(6-fluoro-1,2,3,4-tetrahydro-quinolin-4-yl)methanone]",IC50,Human alpha-thrombin,> 90 µM
same,IC50,Human FXIIa,0.07 µM
"CCN1CCc2c(nn(C(=O)[C@H]3CCNc4ccc(F)cc43)c2N)C1 (single isomer, unassigned) [Example 165, (S*)-(3-amino-6-ethyl-4,5,6,7-tetrahydro-pyrazolo[3,4-c]pyridin-2-yl)(6-fluoro-1,2,3,4-tetrahydro-quinolin-4-yl)methanone]",IC50,Human alpha-thrombin,> 75 µM
same,IC50,Human FXIIa,0.03 µM
"CCN1CCc2c(nn(C(=O)[C@H]3CCNc4c(C)cc(F)cc43)c2N)C1 (single isomer, unassigned) [Example 170, (S*)-(3-amino-6-ethyl-4,5,6,7-tetrahydro-pyrazolo[3,4-c]pyridin-2-yl)(6-fluoro-8-methyl-1,2,3,4-tetrahydro-quinolin-4-yl)methanone]",IC50,Human alpha-thrombin,> 90 µM
same,IC50,Human FXIIa,0.01 µM
"CCN1CCc2c(nn(C(=O)[C@H]3CCNc4c(C)cccc43)c2N)C1 (single isomer, unassigned) [Example 173, (S*)-(3-amino-6-ethyl-4,5,6,7-tetrahydro-pyrazolo[3,4-c]pyridin-2-yl)(8-methyl-1,2,3,4-tetrahydroquinolin-4-yl)methanone]",IC50,Human alpha-thrombin,> 100 µM
same,IC50,Human FXIIa,0.02 µM
"Cc1cccc2c1NCC[C@@H]2C(=O)n1nc2c(c1N)CCNC2 (single isomer, unassigned) [Example 176, (S*)-(3-amino-4,5,6,7-tetrahydro-pyrazolo[3,4-c]pyridin-2-yl)(8-methyl-1,2,3,4-tetrahydro-quinolin-4-yl)methanone]",IC50,Human alpha-thrombin,> 90 µM
same,IC50,Human FXIIa,0.1 µM
"Nc1c2c(nn1C(=O)[C@H]1CCNc3ccc(F)cc31)COCC2 (single isomer, unassigned) [Example 196, (S*)-(3-amino-4,5-dihydropyrano[3,4-c]pyrazol-2(7H)-yl)(6-fluoro-1,2,3,4-tetrahydro-quinolin-4-yl)methanone]",IC50,Human alpha-thrombin,95 µM
same,IC50,Human FXIIa,0.08 µM
"Cc1cccc2c1NCC[C@@H]2C(=O)n1nc2c(c1N)CCOC2 (single isomer, unassigned) [Example 198, (S*)-(3-amino-4,5-dihydropyrano[3,4-c]pyrazol-2(7H)-yl)(8-methyl-1,2,3,4-tetrahydro-quinolin-4-yl)methanone]",IC50,Human alpha-thrombin,> 150 µM
same,IC50,Human FXIIa,0.09 µM
"CN1CCc2nn(C(=O)C3CCCc4[nH]c(Cl)cc43)c(N)c2C1 (stereo not drawn) [Example 3, (3-amino-5-methyl-4,5,6,7-tetrahydropyrazolo[4,3-c]pyridin-2-yl)(2-chloro-4,5,6,7-tetrahydro-1H-indol-4-yl)methanone]",IC50,Human alpha-thrombin,> 35 µM
same,IC50,Human FXIIa,0.35 µM
"CCc1cc2c([nH]1)CCCC2C(=O)n1nc2c(c1N)CN(C(=O)OCc1ccccc1)CC2 (stereo not drawn) [Example 4, Benzyl 3-amino-2-(2-ethyl-4,5,6,7-tetrahydro-1H-indole-4-carbonyl)-6,7-dihydro-2H-pyrazolo[4,3-c]pyridine-5(4H)-carboxylate]",IC50,Human alpha-thrombin,> 25 µM
same,IC50,Human FXIIa,0.3 µM
"CCc1cc2c([nH]1)CCCC2C(=O)n1nc2c(c1N)CNCC2 (stereo not drawn) [Example 6, (3-amino-4,5,6,7-tetrahydropyrazolo[4,3-c]pyridin-2-yl)(2-ethyl-4,5,6,7-tetrahydro-1H-indol-4-yl)methanone]",IC50,Human alpha-thrombin,> 50 µM
same,IC50,Human FXIIa,0.25 µM
"Cc1cc2c(C(=O)n3nc4c(c3N)CCN(C(=O)OC(C)(C)C)C4)cccc2[nH]1 [Example 7, Tert-butyl 3-amino-2-(2-methyl-1H-indole-4-carbonyl)-4,5-dihydro-2H-pyrazolo[3,4-c]pyridine-6(7H)-carboxylate]",IC50,Human alpha-thrombin,> 25 µM
same,IC50,Human FXIIa,0.07 µM
